# Assays:
# blackgrass = test: Test D postemergence; format: in vivo, Alopecurus myosuroides; settings: Alopecurus myosuroides, post-emergence, Postemergence, scale 0 to 100 (0 no effect, 100 complete control), read-out: Plant response rating, Blackgrass; for pest or weed control at 62 g/ha: 62 g ai/ha; for pest or weed control at 16 g/ha: 16 g ai/ha; for pest or weed control at 31 g/ha: 31 g ai/ha; for pest or weed control at 125 g/ha: 125 g ai/ha
# Procedure, shortened: (§1)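 In a controlled growth environment, treated and control plants were held 7 to 21 days, then compared visually. Damage was scored 0–100, where 100 means complete control. Sprays contained surfactant in a non-phytotoxic solvent; post-applied plants were at the 1- to 4-leaf stage.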
# Italian ryegrass = test: Test D preemergence; format: in vivo, Lolium multiflorum; settings: Lolium multiflorum, pre-emergence; for pest or weed control at 16 g/ha: 16 g ai/ha; for pest or weed control at 16 g/ha / pest or weed control at 31 g/ha: scale 0 (no effect) to 100 (complete control), read-out: Plant response rating, Ryegrass, Italian; for pest or weed control at 31 g/ha: 31 g ai/ha; for pest or weed control at 62 g/ha: 62 g ai/ha; for pest or weed control at 125 g/ha: 125 g ai/ha
# Procedure, shortened: as §1
# bromegrass, downy = test: Test D preemergence; format: in vivo, Bromus tectorum; settings: Bromus tectorum, pre-emergence; for pest or weed control at 16 g/ha: 16 g ai/ha, scale 0 (no effect) to 100 (complete control), read-out: Plant response rating, Bromegrass, Downy; for pest or weed control at 31 g/ha: 31 g ai/ha; for pest or weed control at 62 g/ha: 62 g ai/ha; for pest or weed control at 125 g/ha: 125 g ai/ha
# Procedure, shortened: as §1
# spring barley = test: Test D preemergence; format: in vivo, Hordeum vulgare; settings: Hordeum vulgare, pre-emergence; for plant injury at 16 g/ha: 16 g ai/ha, scale 0 (no effect) to 100 (complete control), read-out: Plant response rating, Barley, Spring; for plant injury at 31 g/ha: 31 g ai/ha; for plant injury at 62 g/ha: 62 g ai/ha; for plant injury at 125 g/ha: 125 g ai/ha
# Procedure, shortened: as §1
# field poppy = test: Test D preemergence; format: in vivo, Papaver rhoeas; settings: Papaver rhoeas, pre-emergence; for pest or weed control at 31 g/ha: 31 g ai/ha; for pest or weed control at 62 g/ha: 62 g ai/ha; for pest or weed control at 125 g/ha: 125 g ai/ha
# Procedure, shortened: as §1
# pigweed = test: Test D preemergence; format: in vivo, Amaranthus retroflexus; settings: Amaranthus retroflexus, pre-emergence; for pest or weed control at 16 g/ha: 16 g ai/ha; for pest or weed control at 16 g/ha / pest or weed control at 31 g/ha: scale 0 (no effect) to 100 (complete control), read-out: Plant response rating, Pigweed; for pest or weed control at 31 g/ha: 31 g ai/ha; for pest or weed control at 62 g/ha: 62 g ai/ha; for pest or weed control at 125 g/ha: 125 g ai/ha
# Procedure, shortened: as §1
# chamomile = test: Test D preemergence; format: in vivo, Matricaria inodora; settings: Tripleurospermum inodorum, pre-emergence; for pest or weed control at 16 g/ha: 16 g ai/ha, scale 0 (no effect) to 100 (complete control), read-out: Plant response rating, Chamomile; for pest or weed control at 31 g/ha: 31 g ai/ha; for pest or weed control at 125 g/ha: 125 g ai/ha
# Procedure, shortened: as §1
# windgrass = test: Test D preemergence; format: in vivo, Apera spica-venti; settings: Apera spica-venti, pre-emergence; for pest or weed control at 16 g/ha: 16 g ai/ha; for pest or weed control at 16 g/ha / pest or weed control at 31 g/ha: scale 0 (no effect) to 100 (complete control), read-out: Plant response rating, Windgrass; for pest or weed control at 31 g/ha: 31 g ai/ha; for pest or weed control at 62 g/ha: 62 g ai/ha; for pest or weed control at 125 g/ha: 125 g ai/ha
# Procedure, shortened: as §1
# lambsquarters = test: Test D preemergence; format: in vivo, Chenopodium album; settings: Chenopodium album, pre-emergence; for pest or weed control at 16 g/ha: 16 g ai/ha, scale 0 (no effect) to 100 (complete control), read-out: Plant response rating, Lambsquarters; for pest or weed control at 31 g/ha: 31 g ai/ha; for pest or weed control at 62 g/ha: 62 g ai/ha; for pest or weed control at 125 g/ha: 125 g ai/ha
# Procedure, shortened: as §1
# wild oat = test: Test D postemergence; format: in vivo, Avena fatua; settings: Avena fatua, post-emergence; for pest or weed control at 16 g/ha: 16 g ai/ha, scale 0-100, read-out: Plant response rating, Oat, Wild; for pest or weed control at 31 g/ha: 31 g ai/ha; for pest or weed control at 62 g/ha: 62 g ai/ha; for pest or weed control at 125 g/ha: 125 g ai/ha
# Procedure, shortened: as §1
# [1] = scale 0-100, read-out: Plant response rating, Ryegrass, Italian
# [2] = scale 0-100, read-out: Plant response rating, Bromegrass, Downy
# [3] = scale 0-100, read-out: Plant response rating, Barley, Spring
# [4] = scale 0-100, read-out: Plant response rating, Field Poppy
# [5] = scale 0-100, read-out: Plant response rating, Pigweed
# [6] = scale 0-100, read-out: Plant response rating, Chamomile
# [7] = scale 0-100, read-out: Plant response rating, Windgrass
# [8] = scale 0-100, read-out: Plant response rating, Lambsquarters
# [9] = scale 0 to 100 (0 no effect, 100 complete control), read-out: Plant response rating, Oat, Wild
smiles,measurement,setting,value
"FC(F)(F)c1cnn(-c2ccccc2Oc2ncc(Br)cn2)c1 [Compound 18, 5-bromo-2-[2-[4-(trifluoromethyl)-1H-pyrazol-1-yl]phenoxy]pyrimidine]",pest or weed control at 62 g/ha,blackgrass,15%
same,pest or weed control at 16 g/ha,blackgrass,10%
same,pest or weed control at 31 g/ha,blackgrass,15%
same,pest or weed control at 125 g/ha,blackgrass,20%
same,pest or weed control at 250 g/ha,blackgrass; 250 g ai/ha,35%
same,pest or weed control at 16 g/ha,Italian ryegrass,10%
same,pest or weed control at 31 g/ha,Italian ryegrass,10%
same,pest or weed control at 62 g/ha,Italian ryegrass; [1],20%
same,pest or weed control at 125 g/ha,Italian ryegrass; [1],25%
same,pest or weed control at 250 g/ha,"Italian ryegrass; 250 g ai/ha, scale 0-100, read-out: Plant response rating, Ryegrass, Italian",50%
same,pest or weed control at 16 g/ha,"bromegrass, downy",0%
same,pest or weed control at 31 g/ha,"bromegrass, downy; [2]",0%
same,pest or weed control at 62 g/ha,"bromegrass, downy; [2]",5%
same,pest or weed control at 125 g/ha,"bromegrass, downy; [2]",10%
same,pest or weed control at 250 g/ha,"bromegrass, downy; 250 g ai/ha, scale 0-100, read-out: Plant response rating, Bromegrass, Downy",50%
same,plant injury at 16 g/ha,spring barley,0%
same,plant injury at 31 g/ha,spring barley; [3],5%
same,plant injury at 62 g/ha,spring barley; [3],5%
same,plant injury at 125 g/ha,spring barley; [3],0%
same,plant injury at 250 g/ha,"spring barley; 250 g ai/ha, scale 0-100, read-out: Plant response rating, Barley, Spring",30%
same,pest or weed control at 31 g/ha,field poppy; [4],70%
same,pest or weed control at 62 g/ha,field poppy; [4],85%
same,pest or weed control at 125 g/ha,field poppy; [4],95%
same,pest or weed control at 250 g/ha,"field poppy; 250 g ai/ha, scale 0-100, read-out: Plant response rating, Field Poppy",100%
same,pest or weed control at 16 g/ha,pigweed,30%
same,pest or weed control at 31 g/ha,pigweed,100%
same,pest or weed control at 62 g/ha,pigweed; [5],100%
same,pest or weed control at 125 g/ha,pigweed; [5],100%
same,pest or weed control at 250 g/ha,"pigweed; 250 g ai/ha, scale 0-100, read-out: Plant response rating, Pigweed",100%
same,pest or weed control at 16 g/ha,chamomile,5%
same,pest or weed control at 31 g/ha,chamomile; [6],5%
same,pest or weed control at 125 g/ha,chamomile; [6],50%
same,pest or weed control at 250 g/ha,"chamomile; 250 g ai/ha, scale 0-100, read-out: Plant response rating, Chamomile",55%
same,pest or weed control at 16 g/ha,windgrass,5%
same,pest or weed control at 31 g/ha,windgrass,20%
same,pest or weed control at 62 g/ha,windgrass; [7],75%
same,pest or weed control at 125 g/ha,windgrass; [7],100%
same,pest or weed control at 250 g/ha,"windgrass; 250 g ai/ha, scale 0-100, read-out: Plant response rating, Windgrass",100%
same,pest or weed control at 16 g/ha,lambsquarters,70%
same,pest or weed control at 31 g/ha,lambsquarters; [8],80%
same,pest or weed control at 62 g/ha,lambsquarters; [8],100%
same,pest or weed control at 125 g/ha,lambsquarters; [8],100%
same,pest or weed control at 250 g/ha,"lambsquarters; 250 g ai/ha, scale 0-100, read-out: Plant response rating, Lambsquarters",100%
same,pest or weed control at 16 g/ha,wild oat,10%
same,pest or weed control at 31 g/ha,wild oat; [9],10%
same,pest or weed control at 62 g/ha,wild oat; [9],15%
same,pest or weed control at 125 g/ha,wild oat; [9],20%
same,pest or weed control at 250 g/ha,"wild oat; 250 g ai/ha, scale 0 to 100 (0 no effect, 100 complete control), read-out: Plant response rating, Oat, Wild",25%
"FC(F)(F)c1cn(-c2ccccc2Oc2ncc(Cl)cn2)nn1 [Compound 166, 5-chloro-2-[2-[4-(trifluoromethyl)-1H-1,2,3-triazol-1-yl]phenoxy]pyrimidine]",pest or weed control at 62 g/ha,blackgrass,40%
same,pest or weed control at 16 g/ha,blackgrass,15%
same,pest or weed control at 31 g/ha,blackgrass,20%
same,pest or weed control at 125 g/ha,blackgrass,65%
same,pest or weed control at 16 g/ha,Italian ryegrass,20%
same,pest or weed control at 31 g/ha,Italian ryegrass,40%
same,pest or weed control at 62 g/ha,Italian ryegrass; [1],60%
same,pest or weed control at 125 g/ha,Italian ryegrass; [1],85%
same,pest or weed control at 16 g/ha,"bromegrass, downy",5%
same,pest or weed control at 31 g/ha,"bromegrass, downy; [2]",5%
same,pest or weed control at 62 g/ha,"bromegrass, downy; [2]",25%
same,pest or weed control at 125 g/ha,"bromegrass, downy; [2]",50%
same,plant injury at 16 g/ha,spring barley,0%
same,plant injury at 31 g/ha,spring barley; [3],0%
same,plant injury at 62 g/ha,spring barley; [3],30%
same,plant injury at 125 g/ha,spring barley; [3],60%
same,pest or weed control at 16 g/ha,"field poppy; 16 g ai/ha, scale 0 (no effect) to 100 (complete control), read-out: Plant response rating, Field Poppy",100%
same,pest or weed control at 31 g/ha,field poppy; [4],100%
same,pest or weed control at 62 g/ha,field poppy; [4],100%
same,pest or weed control at 125 g/ha,field poppy; [4],100%
same,pest or weed control at 16 g/ha,pigweed,100%
same,pest or weed control at 31 g/ha,pigweed,100%
same,pest or weed control at 62 g/ha,pigweed; [5],100%
same,pest or weed control at 125 g/ha,pigweed; [5],100%
same,pest or weed control at 16 g/ha,chamomile,5%
same,pest or weed control at 31 g/ha,chamomile; [6],25%
same,pest or weed control at 62 g/ha,"chamomile; 62 g ai/ha, scale 0-100, read-out: Plant response rating, Chamomile",50%
same,pest or weed control at 125 g/ha,chamomile; [6],55%
same,pest or weed control at 16 g/ha,windgrass,50%
same,pest or weed control at 31 g/ha,windgrass,75%
same,pest or weed control at 62 g/ha,windgrass; [7],100%
same,pest or weed control at 125 g/ha,windgrass; [7],100%
same,pest or weed control at 16 g/ha,lambsquarters,85%
same,pest or weed control at 31 g/ha,lambsquarters; [8],95%
same,pest or weed control at 62 g/ha,lambsquarters; [8],100%
same,pest or weed control at 125 g/ha,lambsquarters; [8],100%
same,pest or weed control at 16 g/ha,wild oat,25%
same,pest or weed control at 31 g/ha,wild oat; [9],30%
same,pest or weed control at 62 g/ha,wild oat; [9],35%
same,pest or weed control at 125 g/ha,wild oat; [9],40%
